Values quoted from earlier work in patent publication US20070122486A1, “Nanoparticulate insulin” (Elan Pharma International Limited, priority 2001, published 2007).

Details: physiological conditions

Soluble insulin: Available soluble composition of insulin, a 5.8 kD protein hormone
duration of activity: about six | onset of activity: about 30 minutes
